A value given as a limit tells only on which side of the number the result lay.

Holding throughout (type): cell-based
The target in one experiment is T1, LPA/S1P GPCR of interest (Homo sapiens, UniProt Q92633).
T1 construct: host or cells: CHO
The experiment can be described thus: Beta-Arrestin based assay (PathHunter). The procedure, abridged: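 EA Parental CHO cells (DiscoverX) were transfected with FuGENE (Roche) using CMV promoter-driven DNA constructs encoding the LPA/S1P GPCR of interest fused to a ProLink tag. Beta-arrestin recruitment in agonist mode was assessed 24-48 hrs later with PathHunter kits. Tests ran in quadruplicate in white 384 well plates, and end point luminescence was fit to a 4 parameter logistic function.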

Experiment [1] addresses T2, LPA1 (Homo sapiens, UniProt Q92633). Kind of experiment: LPA1 Migration Assay (Oris). On the set-up: host or cells: primary fibroblasts (lung, dermal), HFL-1, 3T3 and CHO cells expressing LPA1R. To be noted: read-out: Cell Migration EC50. A digest of the protocol:
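Oris exclusion-zone migration of LPA1R-expressing cells (primary lung/dermal fibroblasts, HFL-1, 3T3, CHO), Cell Tracker Green-loaded and serum-starved 12-24 h, toward LPA or serum. Fixed cells in the detection zone were counted by high-content imaging, and cell number vs. concentration was fitted to a 4-parameter logistic.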

The target in experiment [2] is T2, LPA1. Kind of experiment: Ca Flux LPA1 assay. On the set-up: the full-length cDNA for human LPA1 is obtained by PCR of the reverse transcription reaction; expressed in transfected cells.

T2 sequence (Q92633 whole entry): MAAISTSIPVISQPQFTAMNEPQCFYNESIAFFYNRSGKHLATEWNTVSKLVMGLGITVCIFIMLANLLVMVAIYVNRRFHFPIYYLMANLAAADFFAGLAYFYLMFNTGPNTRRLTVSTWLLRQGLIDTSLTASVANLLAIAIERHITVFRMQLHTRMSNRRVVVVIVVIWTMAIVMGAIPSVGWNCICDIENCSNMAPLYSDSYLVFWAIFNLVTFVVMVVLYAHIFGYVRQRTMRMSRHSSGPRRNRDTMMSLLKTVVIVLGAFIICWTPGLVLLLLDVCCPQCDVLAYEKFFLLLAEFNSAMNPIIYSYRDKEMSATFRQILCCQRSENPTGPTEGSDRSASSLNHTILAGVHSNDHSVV
T1 sequence (Q92633 whole entry): as above

A word on the IC50: it is the concentration that gives 50% inhibition. A high value points to a need for much substance. In the case of `Cc1nsc(-c2ccc(-c3cc(F)c(Oc4ccccc4C(=O)O)c(F)c3)cc2)c1NC(=O)O[C@H](C)c1ccccc1` [IT448], the EC50 at LPA/S1P GPCR of interest was less than 50 nM; at LPA1 [1], 50 to 500 nM. The same compound yielded a half-inhibitory concentration (IC50) against LPA1 [2] of 50 to 500 nM.

As for `Cc1noc(-c2ccc(-c3cc(F)c(Oc4ccccc4C(=O)O)c(F)c3)cc2)c1NC(=O)O[C@H](C)c1ccccc1Cl` [IT449], the EC50 at LPA/S1P GPCR of interest and on LPA1 [1] was less than 50 nM in each case. On LPA1 [2], this compound returned a half-inhibitory concentration (IC50) greater than 500 nM.

As to `C[C@@H](OC(=O)Nc1c(-c2ccc(-c3cc(F)c(Oc4ncccc4C(=O)O)c(F)c3)cc2)cnn1C)c1ccccc1Cl` [IT450], the EC50 at LPA/S1P GPCR of interest and at LPA1 [1] was less than 50 nM in each case. This compound gave an IC50 against LPA1 [2] of 50 to 500 nM.

Turning to `Cc1nsc(-c2ccc(-c3cc(F)c(Oc4ncccc4C(=O)O)c(F)c3)cc2)c1NC(=O)O[C@H](C)c1ccccc1` [IT451], the EC50 at LPA/S1P GPCR of interest and at LPA1 [1] was less than 50 nM throughout. The IC50 against LPA1 [2] is 50 to 500 nM.

`C[C@@H](OC(=O)Nc1c(-c2ccc(-c3cc(F)c(Oc4cccnc4C(=O)O)c(F)c3)cc2)nnn1C)c1ccccc1` [IT452]: the EC50 on LPA/S1P GPCR of interest and on LPA1 [1] was less than 50 nM throughout. The 50% inhibitory concentration (IC50) against LPA1 [2] is less than 50 nM.

Consider `C[C@@H](OC(=O)Nc1c(-c2ccc(-c3cc(F)c(Oc4ccncc4C(=O)O)c(F)c3)cc2)nnn1C)c1ccccc1` [IT453], for which the EC50 on LPA/S1P GPCR of interest and at LPA1 [1] was less than 50 nM in each case. The IC50 at LPA1 [2] lay within 50 to 500 nM.

Consider `Cc1noc(-c2cc(F)c(-c3cc(F)c(Oc4ncccc4C(=O)O)c(F)c3)cc2F)c1NC(=O)O[C@H](C)c1ccccc1` [IT474], for which the EC50 on LPA/S1P GPCR of interest and at LPA1 [1] was less than 50 nM in each case. The same compound displayed an IC50 at LPA1 [2] of less than 50 nM.

Take `COC(=O)C1(c2cc3sc(C#Cc4cnn(C)c4NC(=O)O[C@H](C)c4ccccc4)cc3s2)CC1` [IT479]: the figures for the EC50 on LPA/S1P GPCR of interest and at LPA1 [1] were less than 50 nM and greater than 500 nM, respectively. This compound had an IC50 on LPA1 [2] of 50 to 500 nM.

Turning to `Cc1noc(-c2ccc(-c3cc(F)c(Oc4nc5ccccc5cc4C(=O)O)c(F)c3)cc2)c1NC(=O)O[C@H](C)c1ccccc1` [IT481], the EC50 at LPA/S1P GPCR of interest and at LPA1 [1] was less than 50 nM in each case. For the same compound, at LPA1 [2], the half-maximal inhibitory concentration (IC50) was greater than 500 nM.

As to `Cc1noc(-c2ccc(-c3ccc(Oc4c(C)nn(C)c4C(=O)O)cc3)cc2)c1NC(=O)O[C@H](C)c1ccccc1` [IT483], the EC50 is less than 50 nM on LPA/S1P GPCR of interest and 50 to 500 nM at LPA1 [1]. At LPA1 [2], this compound had an IC50 of 50 to 500 nM.

For the compound `Cc1noc(-c2ccc(-c3ccc(Oc4c(C(=O)O)nn(C)c4C)cc3)cc2)c1NC(=O)O[C@H](C)c1ccccc1` [IT484], the EC50 was less than 50 nM at LPA/S1P GPCR of interest and 50 to 500 nM on LPA1 [1]. The same compound displayed an IC50 against LPA1 [2] of less than 50 nM.

`Cc1noc(-c2ccc(-c3ccc(Oc4c(C(=O)O)n[nH]c4C)cc3)cc2)c1NC(=O)O[C@H](C)c1ccccc1` [IT485]: the EC50 at LPA/S1P GPCR of interest and at LPA1 [1] was less than 50 nM in each case. In addition, the IC50 on LPA1 [2] was 50 to 500 nM.

As for `CCn1ncc(-c2ccc(-c3cc(F)c(Oc4ncccc4C(=O)O)c(F)c3)cc2)c1NC(=O)O[C@H](C)c1ccccc1` [IT489], the EC50 on LPA/S1P GPCR of interest and at LPA1 [1] was less than 50 nM throughout. In addition, the IC50 against LPA1 [2] lay in the range of 50 to 500 nM.

For `C[C@@H](OC(=O)Nc1c(-c2ccc(-c3ccc(C4(C(=O)O)CC4)cc3)cc2)oc2ccccc12)c1ccccc1` [IT496], the EC50 on LPA/S1P GPCR of interest and at LPA1 [1] was less than 50 nM each time. The same compound yielded an IC50 on LPA1 [2] greater than 500 nM.
